Consider 15 compounds from patent publication US20250059171A1 (Hoffmann-La Roche Inc., priority 2021, published 2025).

In general, IC50 refers to the concentration that inhibits the measured activity by half. High values mean a need for much substance, low ones inhibition by little substance.

Assay [1] addresses HCoV-229E 3CLpro (Human coronavirus 229E, UniProt P0C6X1). Kind of assay: HCoV-229E 3CLpro inhibition assay (FRET). Format: biochemical.
For assay [2], the target named is SARS-CoV-2 3CLpro (Severe acute respiratory syndrome coronavirus 2, UniProt P0DTD1). Kind of assay: biochemical.
Assay [3] deals with MERS-CoV 3CLpro (Middle East respiratory syndrome-related coronavirus, UniProt K9N7C7). Kind of assay: biochemical.
In assay [4] the target is SARS-CoV 3CLpro (Severe acute respiratory syndrome coronavirus, UniProt P0C6X7). As to the kind of experiment: biochemical.

Sequence of MERS-CoV 3CLpro (K9N7C7 3248-3553): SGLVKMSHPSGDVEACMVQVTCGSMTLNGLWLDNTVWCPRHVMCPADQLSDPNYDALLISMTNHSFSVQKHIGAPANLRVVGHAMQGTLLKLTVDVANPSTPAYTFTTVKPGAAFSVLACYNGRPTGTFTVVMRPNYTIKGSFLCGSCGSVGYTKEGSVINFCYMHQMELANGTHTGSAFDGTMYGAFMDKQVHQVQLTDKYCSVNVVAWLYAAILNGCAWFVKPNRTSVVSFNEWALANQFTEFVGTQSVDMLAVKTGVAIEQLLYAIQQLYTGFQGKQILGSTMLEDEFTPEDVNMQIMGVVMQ
Sequence of HCoV-229E 3CLpro (P0C6X1 2966-3267): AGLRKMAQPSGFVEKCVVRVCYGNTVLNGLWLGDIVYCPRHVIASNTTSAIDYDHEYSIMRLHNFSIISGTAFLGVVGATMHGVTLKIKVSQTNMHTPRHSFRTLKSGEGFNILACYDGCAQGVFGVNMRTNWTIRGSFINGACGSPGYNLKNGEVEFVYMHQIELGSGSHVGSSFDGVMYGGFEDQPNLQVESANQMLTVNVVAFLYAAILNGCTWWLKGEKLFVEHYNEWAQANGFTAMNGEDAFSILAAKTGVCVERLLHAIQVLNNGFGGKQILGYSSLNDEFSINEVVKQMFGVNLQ

`CC(C)(C)[C@H](NC(=O)C(F)F)C(=O)N1C[C@H]2[C@@H]([C@H]1C(=O)NN(C[C@@H]1CCNC1=O)C(=O)[C@H](F)Cl)C2(C)C` [Example 14, N-[(1S)-1-[(1R,2S,5S)-2-[[[(2R)-2-chloro-2-fluoro-acetyl]-[[(3S)-2-oxopyrrolidin-3-yl]methyl]amino]carbamoyl]-6,6-dimethyl-3-azabicyclo[3.1.0]hexane-3-carbonyl]-2,2-dimethyl-propyl]-2,2-difluoro-acetamide]: the IC50 in assay [1] was 36 nM; in assay [2], 7 nM; in assay [3] it was 121 nM; in assay [4] it was 18 nM.

Take `CC(C)(C)[C@H](NC(=O)C12CC(C1)C2)C(=O)N1C[C@H]2[C@@H]([C@H]1C(=O)NN(C[C@@H]1CCNC1=O)C(=O)[C@H](F)Cl)C2(C)C` [Example 15, N-[(1S)-1-[(1R,2S,5S)-2-[[[(2R)-2-chloro-2-fluoro-acetyl]-[[(3S)-2-oxopyrrolidin-3-yl]methyl]amino]carbamoyl]-6,6-dimethyl-3-azabicyclo[3.1.0]hexane-3-carbonyl]-2,2-dimethyl-propyl]bicyclo[1.1.1]pentane-1-carboxamide]: the IC50 in assay [1] came out at 55 nM; in assay [2], 8 nM; in assay [3], 204 nM; in assay [4], 26 nM.

As for `CC(C)(C)[C@H](NC(=O)c1cc(C(F)(F)F)on1)C(=O)N1C[C@H]2[C@@H]([C@H]1C(=O)NN(C[C@@H]1CCNC1=O)C(=O)[C@H](F)Cl)C2(C)C` [Example 16, N-[(1S)-1-[(1R,2S,5S)-2-[[[(2R)-2-chloro-2-fluoro-acetyl]-[[(3S)-2-oxopyrrolidin-3-yl]methyl]amino]carbamoyl]-6,6-dimethyl-3-azabicyclo[3.1.0]hexane-3-carbonyl]-2,2-dimethyl-propyl]-5-(trifluoromethyl)isoxazole-3-carboxamide], the IC50 in assay [1] turned out to be 159 nM; in assay [2], 20 nM; in assay [3] it was 430 nM; in assay [4] it was 357 nM.

As to `CC(C)(C)[C@H](NC(=O)C(F)(F)F)C(=O)N1C[C@H]2[C@@H]([C@H]1C(=O)NN(C[C@@H]1CCNC1=O)C(=O)[C@@H](F)Cl)C2(C)C` [Example 19, N-[(1S)-1-[(1R,2S,5S)-2-[[[(2S)-2-chloro-2-fluoro-acetyl]-[[(3S)-2-oxopyrrolidin-3-yl]methyl]amino]carbamoyl]-6,6-dimethyl-3-azabicyclo[3.1.0]hexane-3-carbonyl]-2,2-dimethyl-propyl]-2,2,2-trifluoro-acetamide], the IC50 in assay [1] amounted to 27 nM; in assay [2] it was 13 nM; in assay [3], 92 nM; in assay [4], 15 nM.

For the compound `CC1(C)[C@@H]2[C@@H](C(=O)NN(C[C@@H]3CCNC3=O)C(=O)[C@H](F)Cl)N(C(=O)[C@H](Cc3ccccc3)NC(=O)C(F)(F)F)C[C@@H]21` [Example 20, N-[(1S)-1-benzyl-2-[(1R,2S,5S)-2-[[[(2R)-2-chloro-2-fluoro-acetyl]-[[(3S)-2-oxopyrrolidin-3-yl]methyl]amino]carbamoyl]-6,6-dimethyl-3-azabicyclo[3.1.0]hexan-3-yl]-2-oxo-ethyl]-2,2,2-trifluoro-acetamide], the IC50 is 47 nM in assay [1], 14 nM in assay [2], 106 nM in assay [3] and 16 nM in assay [4].

Consider `CC1(C)[C@@H]2[C@@H](C(=O)NN(C[C@@H]3CCNC3=O)C(=O)[C@H](F)Cl)N(C(=O)[C@@H](NC(=O)C(F)(F)F)c3ccccc3)C[C@@H]21` [Example 21, N-[(1S)-2-[(1R,2S,5S)-2-[[[(2R)-2-chloro-2-fluoro-acetyl]-[[(3S)-2-oxopyrrolidin-3-yl]methyl]amino]carbamoyl]-6,6-dimethyl-3-azabicyclo[3.1.0]hexan-3-yl]-2-oxo-1-phenyl-ethyl]-2,2,2-trifluoro-acetamide], for which the IC50 was found to be 34 nM in assay [1], 25 nM in assay [2], 109 nM in assay [3] and 17 nM in assay [4].

On to `CC(C)(C)[C@H](NC(=O)C(F)(F)C(F)(F)F)C(=O)N1C[C@H]2[C@@H]([C@H]1C(=O)NN(C[C@@H]1CCNC1=O)C(=O)[C@H](F)Cl)C2(C)C` [Example 22, N-[(1S)-1-[(1R,2S,5S)-2-[[[(2R)-2-chloro-2-fluoro-acetyl]-[[(3S)-2-oxopyrrolidin-3-yl]methyl]amino]carbamoyl]-6,6-dimethyl-3-azabicyclo[3.1.0]hexane-3-carbonyl]-2,2-dimethyl-propyl]-2,2,3,3,3-pentafluoro-propanamide], for which the IC50 in assay [1] is 76 nM; in assay [2], 8 nM; in assay [3], 183 nM; in assay [4], 31 nM.

In the case of `CC(C)(C)[C@H](NC(=O)C(F)(F)F)C(=O)N1C[C@H](C(F)(F)F)C[C@H]1C(=O)NN(C[C@@H]1CCNC1=O)C(=O)[C@H](F)Cl` [Example 23, N-[(1S)-1-[(2S,4R)-2-[[[(2R)-2-chloro-2-fluoro-acetyl]-[[(3S)-2-oxopyrrolidin-3-yl]methyl]amino]carbamoyl]-4-(trifluoromethyl)pyrrolidine-1-carbonyl]-2,2-dimethyl-propyl]-2,2,2-trifluoro-acetamide], the IC50 in assay [1] amounted to 21 nM; in assay [2], 9 nM; in assay [3], 65 nM; in assay [4] it was 11 nM.

With `CC1([C@H](NC(=O)C(F)(F)F)C(=O)N2CC3(CC3)C[C@H]2C(=O)NN(C[C@@H]2CCNC2=O)C(=O)[C@H](F)Cl)CC1` [Example 24, N-[(1S)-2-[(6S)-6-[[[(2R)-2-chloro-2-fluoro-acetyl]-[[(3S)-2-oxopyrrolidin-3-yl]methyl]amino]carbamoyl]-5-azaspiro[2.4]heptan-5-yl]-1-(1-methylcyclopropyl)-2-oxo-ethyl]-2,2,2-trifluoro-acetamide], the half-maximal inhibitory concentration (IC50) came out at 31 nM in assay [1], 18 nM in assay [2], 114 nM in assay [3] and 13 nM in assay [4].

As for `CC(C)C(=O)N[C@H](C(=O)N1CC2(CC2)C[C@H]1C(=O)NN(C[C@@H]1CCNC1=O)C(=O)[C@H](F)Cl)C(C)(C)C` [Example 25, N-[(1S)-1-[(6S)-6-[[[(2R)-2-chloro-2-fluoro-acetyl]-[[(3S)-2-oxopyrrolidin-3-yl]methyl]amino]carbamoyl]-5-azaspiro[2.4]heptane-5-carbonyl]-2,2-dimethyl-propyl]-2-methyl-propanamide], the IC50 in assay [1] came to 127 nM; in assay [2], 15 nM; in assay [3], 408 nM; in assay [4], 27 nM.

Consider `CC1(C)C[C@@H](C(=O)NN(C[C@@H]2CCNC2=O)C(=O)[C@H](F)Cl)N(C(=O)[C@@H](NC(=O)C2CC2)C(C)(C)C)C1` [Example 26, N-[(1S)-1-[(2S)-2-[[[(2R)-2-chloro-2-fluoro-acetyl]-[[(3S)-2-oxopyrrolidin-3-yl]methyl]amino]carbamoyl]-4,4-dimethyl-pyrrolidine-1-carbonyl]-2,2-dimethyl-propyl]cyclopropanecarboxamide], for which the concentration for half-maximal inhibition (IC50) in assay [1] was 28 nM; in assay [2], 12 nM; in assay [3], 98 nM; in assay [4] it was 21 nM.

Consider `C[C@H]1C[C@@H](C(=O)NN(C[C@@H]2CCNC2=O)C(=O)[C@H](F)Cl)N(C(=O)[C@@H](NC(=O)C(F)(F)F)C(C)(C)C)C1` [Example 27, N-[(1S)-1-[(2S,4S)-2-[[[(2R)-2-chloro-2-fluoro-acetyl]-[[(3S)-2-oxopyrrolidin-3-yl]methyl]amino]carbamoyl]-4-methyl-pyrrolidine-1-carbonyl]-2,2-dimethyl-propyl]-2,2,2-trifluoro-acetamide], for which the IC50 in assay [1] was found to be 29 nM; in assay [2] it was 29 nM; in assay [3] it was 136 nM; in assay [4], 20 nM.

Take `CC(C)(C)[C@H](NC(=O)C(F)F)C(=O)N1C[C@@H]2CCC[C@@H]2[C@H]1C(=O)NN(C[C@@H]1CCNC1=O)C(=O)[C@H](F)Cl` [Example 28, N-[(1S)-1-[(3S,3aS,6aR)-3-[[[(2R)-2-chloro-2-fluoro-acetyl]-[[(3S)-2-oxopyrrolidin-3-yl]methyl]amino]carbamoyl]-3,3a,4,5,6,6a-hexahydro-1H-cyclopenta[c]pyrrole-2-carbonyl]-2,2-dimethyl-propyl]-2,2-difluoro-acetamide]: the IC50 in assay [1] came out at 396 nM; in assay [2] it was 8 nM; in assay [3], 1020 nM; in assay [4] it was 38 nM.

Turning to `CC(=O)N[C@H](C(=O)N1C[C@@H]2CCC[C@@H]2[C@H]1C(=O)NN(C[C@@H]1CCNC1=O)C(=O)[C@H](F)Cl)C(C)(C)C` [Example 29, N-[(1S)-1-[(3S,3aS,6aR)-3-[[[(2R)-2-chloro-2-fluoro-acetyl]-[[(3S)-2-oxopyrrolidin-3-yl]methyl]amino]carbamoyl]-3,3a,4,5,6,6a-hexahydro-1H-cyclopenta[c]pyrrole-2-carbonyl]-2,2-dimethyl-propyl]acetamide], the IC50 in assay [1] stood at 28 nM; in assay [2], 10 nM; in assay [3] it was 68 nM; in assay [4], 11 nM.

For the compound `CC(F)(F)C(=O)N[C@H](C(=O)N1C[C@@H]2CCC[C@@H]2[C@H]1C(=O)NN(C[C@@H]1CCNC1=O)C(=O)[C@H](F)Cl)C(C)(C)C` [Example 30, N-[(1S)-1-[(3S,3aS,6aR)-3-[[[(2R)-2-chloro-2-fluoro-acetyl]-[[(3S)-2-oxopyrrolidin-3-yl]methyl]amino]carbamoyl]-3,3a,4,5,6,6a-hexahydro-1H-cyclopenta[c]pyrrole-2-carbonyl]-2,2-dimethyl-propyl]-2,2-difluoro-propanamide], the IC50 in assay [1] was determined as 49 nM; in assay [2], 8 nM; in assay [3], 143 nM; in assay [4] it was 15 nM.
